Results taken from US12304932B2, “PACAP stabilized peptide” (SENJU PHARMACEUTICAL CO., LTD., priority 2017, dated 2025).
Square brackets hold non-standard residues; d marks the D form. Peptide text beside a SMILES is read from it. Ala(1H-tetrazol-5-yl) = N[C@@H](Cc1nnn[nH]1)C(=O)O

Experiment: Peptide stability tests 2 and 3: Tris buffer pH 7.0, stored at 60° C., HPLC conditions 2
Assay type: physicochemical
Conditions: 100 μM peptide, Tris buffer pH 7.0, 60° C.; for survival rate after correction for water, 60° C., 2-week storage: 2 weeks
Experimental: (§1) Peptides 1, 2 and 6 to 9 synthesized in Example 2 were weighed and dissolved in Tris buffer (pH 7.0) to prepare 1.0 mM peptide solutions. The solutions were filtered with a Chromatdisk (product of Merck Millipore, Millex-GV, 0.22 μm). Each filtrate was diluted to 100 μM with Tris buffer (pH 7.0) and dispensed into a tube (Protein LoBind Tube by Eppendorf Co.). The prepared peptide solutions were incubated for 1 week or 2 weeks in a 60° C. thermostatic bath to obtain stored samples. A simultaneously prepared sample among the peptide solutions that was not stored was used as a standard sample (initial sample). The standard sample and the stored samples were stored at −30° C. until sample analysis.
Each stored sample was measured under the following HPLC analysis conditions 2, and the survival rate after correction for water for each peptide among the stored samples was calculated in the same manner as Example 3.
Column: XSelect CSH C18 by Waters Co., 5 μm, 4.6×250 mm
Guard column: XSelect CSH C18 by Waters. Co., 5 μm, 4.6×20 mm Guard Cartridge
Detection wavelength: 220 nm
Mobile phase A: 0.1% formic acid in water
Mobile phase B: 0.1% formic acid in acetonitrile
Measuring time: 20 minutes
Measuring sample injection rate: 50 μL
Column temperature: 40° C.
Mobile phase delivery: The mixing ratio of mobile phase A and mobile phase B was varied as shown in Table 5 for linear concentration gradient control.
as §1, with “Peptides 12 to 25, 27” for “Peptides 1, 2”, “and 28” for “and 6 to 9”, “for one” for “for 1”
The survival rate after correction for water for each peptide among the stored samples was calculated in the same manner as Example 4, and the results are shown in Table 7.
as §1, with “29” for “1, 2 and 6”, “34” for “9”, “for” for “for 1 week or”
The survival rate after correction for water for each peptide among the stored samples was calculated in the same manner as Example 4, and the results are shown in Table 7-2.

Which “survival rate after correction for water, 60° C., 1-week storage” value (“survival rate … 1-week storage” below) does the source give for `CC[C@H](C)[C@H](NC(=O)CNC(=O)[C@H](Cc1nnn[nH]1)NC(=O)[C@H](CO)NC(=O)[C@H](Cc1c[nH]cn1)NC(C)=O)C(=O)N[C@@H](Cc1ccccc1)C(=O)N[C@H](C(=O)N[C@@H](Cc1nnn[nH]1)C(=O)N[C@@H](CO)C(=O)N[C@@H](Cc1ccc(O)cc1)C(=O)N[C@@H](CO)C(=O)N[C@@H](CCCNC(=N)N)C(=O)N[C@@H](Cc1ccc(O)cc1)C(=O)N[C@@H](CCCNC(=N)N)C(=O)N[C@@H](CCCNC(=N)N)C(=O)N[C@@H](CCC(N)=O)C(=O)N[C@@H](CC(C)C)C(=O)N[C@@H](C)C(=O)N[C@H](C(=O)N[C@@H](CCCNC(=N)N)C(=O)N[C@@H](CCCNC(=N)N)C(=O)N[C@@H](Cc1ccc(O)cc1)C(=O)N[C@@H](CC(C)C)C(=O)N[C@@H](C)C(=O)N[C@@H](C)C(=O)N[C@H](C(=O)N[C@@H](CC(C)C)C(N)=O)C(C)C)C(C)C)[C@@H](C)O` [Peptide 21] (Ac-HS[Ala(1H-tetrazol-5-yl)]GIFT[Ala(1H-tetrazol-5-yl)]SYSRYRRQLAVRRYLAAVL-NH2) here?
Its value is 97.8%.

What about the “survival rate after correction for water, 60° C., 2-week storage” value (“survival rate … 2-week storage” for short) of the same compound?
The value was 93.5%.

With `CC[C@H](C)[C@H](NC(=O)CNC(=O)[C@H](Cc1nnn[nH]1)NC(=O)[C@H](CO)NC(=O)[C@H](Cc1c[nH]cn1)NC(C)=O)C(=O)N[C@@H](Cc1ccccc1)C(=O)N[C@H](C(=O)N[C@@H](Cc1nnn[nH]1)C(=O)N[C@@H](CO)C(=O)N[C@@H](Cc1ccc(O)cc1)C(=O)N[C@@H](CO)C(=O)N[C@@H](CCCNC(=N)N)C(=O)N[C@@H](Cc1ccc(O)cc1)C(=O)N[C@@H](CCCNC(=N)N)C(=O)N[C@@H](CCCNC(=N)N)C(=O)N[C@@H](CCC(N)=O)C(=O)N[C@@H](CC(C)C)C(=O)N[C@@H](C)C(=O)N[C@H](C(=O)N[C@@H](CCCNC(=N)N)C(=O)N[C@@H](CCCNC(=N)N)C(=O)N[C@@H](Cc1ccc(O)cc1)C(=O)N[C@@H](CC(C)C)C(=O)N[C@@H](C)C(=O)N[C@@H](C)C(=O)N[C@H](C(=O)N[C@@H](CC(C)C)C(=O)NCC(=O)N[C@@H](CCCNC(=N)N)C(=O)N[C@@H](CCCNC(=N)N)C(N)=O)C(C)C)C(C)C)[C@@H](C)O` [Peptide 22] (Ac-HS[Ala(1H-tetrazol-5-yl)]GIFT[Ala(1H-tetrazol-5-yl)]SYSRYRRQLAVRRYLAAVLGRR-NH2) as the compound, how does the “survival rate … 1-week storage” value read?
Its value is 98.2%.

For `CC[C@H](C)[C@H](NC(=O)[C@H](C)NC(=O)[C@H](Cc1nnn[nH]1)NC(=O)[C@H](CO)NC(=O)[C@H](Cc1c[nH]cn1)NC(C)=O)C(=O)N[C@@H](Cc1ccccc1)C(=O)N[C@H](C(=O)N[C@@H](Cc1nnn[nH]1)C(=O)N[C@@H](CO)C(=O)N[C@@H](Cc1ccc(O)cc1)C(=O)N[C@@H](CO)C(=O)N[C@@H](CCCNC(=N)N)C(=O)N[C@@H](Cc1ccc(O)cc1)C(=O)N[C@@H](CCCNC(=N)N)C(=O)N[C@@H](CCCCN)C(=O)N[C@@H](CCC(N)=O)C(=O)N[C@@H](CC(C)C)C(=O)N[C@@H](C)C(=O)N[C@H](C(=O)N[C@@H](CCCCN)C(=O)N[C@@H](CCCCN)C(=O)N[C@@H](Cc1ccc(O)cc1)C(=O)N[C@@H](CC(C)C)C(=O)N[C@@H](C)C(=O)N[C@@H](C)C(=O)N[C@H](C(=O)N[C@@H](CC(C)C)C(N)=O)C(C)C)C(C)C)[C@@H](C)O` [Peptide 23] (Ac-HS[Ala(1H-tetrazol-5-yl)]AIFT[Ala(1H-tetrazol-5-yl)]SYSRYRKQLAVKKYLAAVL-NH2), which “survival rate … 1-week storage” value is on record?
Its value is 96.5%.

What about the “survival rate … 2-week storage” value of the same compound?
Its value is 93.1%.

With `CC[C@H](C)[C@H](NC(=O)CNC(=O)[C@H](Cc1nnn[nH]1)NC(=O)[C@H](C)NC(=O)[C@H](Cc1c[nH]cn1)NC(C)=O)C(=O)N[C@@H](Cc1ccccc1)C(=O)N[C@H](C(=O)N[C@@H](Cc1nnn[nH]1)C(=O)N[C@@H](C)C(=O)N[C@@H](Cc1ccc(O)cc1)C(=O)N[C@@H](CO)C(=O)N[C@@H](CCCNC(=N)N)C(=O)N[C@@H](Cc1ccc(O)cc1)C(=O)N[C@@H](CCCNC(=N)N)C(=O)N[C@@H](CCCCN)C(=O)N[C@@H](CCC(N)=O)C(=O)N[C@@H](CC(C)C)C(=O)N[C@@H](C)C(=O)N[C@H](C(=O)N[C@@H](CCCCN)C(=O)N[C@@H](CCCCN)C(=O)N[C@@H](Cc1ccc(O)cc1)C(=O)N[C@@H](CC(C)C)C(=O)N[C@@H](C)C(=O)N[C@@H](C)C(=O)N[C@H](C(=O)N[C@@H](CC(C)C)C(N)=O)C(C)C)C(C)C)[C@@H](C)O` [Peptide 24] (Ac-HA[Ala(1H-tetrazol-5-yl)]GIFT[Ala(1H-tetrazol-5-yl)]AYSRYRKQLAVKKYLAAVL-NH2) as the compound, how does the “survival rate … 1-week storage” value read?
Its value is 98.1%.

And the “survival rate … 2-week storage” value?
Its value is 94.3%.

What does the source list for `CC[C@H](C)[C@H](NC(=O)CNC(=O)[C@H](Cc1nnn[nH]1)NC(=O)[C@H](C)NC(=O)[C@H](Cc1c[nH]cn1)NC(C)=O)C(=O)N[C@@H](Cc1ccccc1)C(=O)N[C@H](C(=O)N[C@@H](Cc1nnn[nH]1)C(=O)N[C@@H](CO)C(=O)N[C@@H](Cc1ccc(O)cc1)C(=O)N[C@@H](CO)C(=O)N[C@@H](CCCNC(=N)N)C(=O)N[C@@H](Cc1ccc(O)cc1)C(=O)N[C@@H](CCCNC(=N)N)C(=O)N[C@@H](CCCCN)C(=O)N[C@@H](CCC(N)=O)C(=O)N[C@@H](C)C(=O)N[C@@H](C)C(=O)N[C@H](C(=O)N[C@@H](CCCCN)C(=O)N[C@@H](CCCCN)C(=O)N[C@@H](Cc1ccc(O)cc1)C(=O)N[C@@H](CC(C)C)C(=O)N[C@@H](C)C(=O)N[C@@H](C)C(=O)N[C@H](C(=O)N[C@@H](CC(C)C)C(N)=O)C(C)C)C(C)C)[C@@H](C)O` [Peptide 25] (Ac-HA[Ala(1H-tetrazol-5-yl)]GIFT[Ala(1H-tetrazol-5-yl)]SYSRYRKQAAVKKYLAAVL-NH2)?
survival rate after correction for water, 60° C., 1-week storage: 95.8%; survival rate after correction for water, 60° C., 2-week storage: 91.2%

With `CC[C@H](C)[C@H](NC(=O)CNC(=O)[C@H](Cc1nnn[nH]1)NC(=O)[C@H](CO)NC(=O)[C@H](Cc1c[nH]cn1)NC(C)=O)C(=O)N[C@@H](Cc1ccccc1)C(=O)N[C@H](C(=O)N[C@@H](Cc1nnn[nH]1)C(=O)N[C@@H](C)C(=O)N[C@@H](Cc1ccc(O)cc1)C(=O)N[C@@H](CO)C(=O)N[C@@H](CCCNC(=N)N)C(=O)N[C@@H](Cc1ccc(O)cc1)C(=O)N[C@@H](CCCNC(=N)N)C(=O)N[C@@H](CCCCN)C(=O)N[C@@H](CCC(N)=O)C(=O)N[C@@H](C)C(=O)N[C@@H](C)C(=O)N[C@H](C(=O)N[C@@H](CCCCN)C(=O)N[C@@H](CCCCN)C(=O)N[C@@H](Cc1ccc(O)cc1)C(=O)N[C@@H](CC(C)C)C(=O)N[C@@H](C)C(=O)N[C@@H](C)C(=O)N[C@H](C(=O)N[C@@H](CC(C)C)C(N)=O)C(C)C)C(C)C)[C@@H](C)O` [Peptide 27] (Ac-HS[Ala(1H-tetrazol-5-yl)]GIFT[Ala(1H-tetrazol-5-yl)]AYSRYRKQAAVKKYLAAVL-NH2) as the compound, how does the “survival rate … 1-week storage” value read?
The value was 96.4%.

What about the “survival rate … 2-week storage” value of the same compound?
The value was 93.5%.

For `CC[C@H](C)[C@H](NC(=O)CNC(=O)[C@H](Cc1nnn[nH]1)NC(=O)[C@H](CO)NC(=O)[C@H](Cc1c[nH]cn1)NC(C)=O)C(=O)N[C@@H](Cc1ccccc1)C(=O)N[C@H](C(=O)N[C@@H](Cc1nnn[nH]1)C(=O)N[C@@H](CO)C(=O)N[C@@H](Cc1ccc(O)cc1)C(=O)N[C@@H](CO)C(=O)N[C@@H](CCCNC(=N)N)C(=O)N[C@@H](Cc1ccc(O)cc1)C(=O)N[C@@H](CCCNC(=N)N)C(=O)N[C@@H](CCCCN)C(=O)N[C@@H](C)C(=O)N[C@@H](C)C(=O)N[C@@H](C)C(=O)N[C@H](C(=O)N[C@@H](CCCCN)C(=O)N[C@@H](CCCCN)C(=O)N[C@@H](Cc1ccc(O)cc1)C(=O)N[C@@H](CC(C)C)C(=O)N[C@@H](C)C(=O)N[C@@H](C)C(=O)N[C@H](C(=O)N[C@@H](CC(C)C)C(N)=O)C(C)C)C(C)C)[C@@H](C)O` [Peptide 28] (Ac-HS[Ala(1H-tetrazol-5-yl)]GIFT[Ala(1H-tetrazol-5-yl)]SYSRYRKAAAVKKYLAAVL-NH2), which “survival rate … 1-week storage” value is on record?
The value was 94.6%.

And the “survival rate … 2-week storage” value?
The value was 90.5%.
